Measurements published in paper PMC6302903, “Protein and Chemical Determinants of BL-1249 Action and Selectivity for K2P Channels” (ACS Chemical Neuroscience, 2018).

How the values were obtained:
Type in all cases: cell-based
Conditions in all cases: Xenopus oocytes
TREK-1/AAK M4-C = biological target: T1, TREK-1/AAK M4-C (Mus musculus, UniProt O88454+P97438); assay: TEVC of chimera TREK-1/AAK M4-C
T1 construct: Y272 (TREK-1/AAK M4-C); expressed in transfected cells; host or cells: Xenopus laevis oocytes, mRNA injected; chimera built by Gibson assembly
T1 sequence (P97438+O88454 with tags, fused parts or gaps P97438:V273L/P97438:V280F/P97438:A287S/P97438:S290T/P97438:M291T/P97438:D294N): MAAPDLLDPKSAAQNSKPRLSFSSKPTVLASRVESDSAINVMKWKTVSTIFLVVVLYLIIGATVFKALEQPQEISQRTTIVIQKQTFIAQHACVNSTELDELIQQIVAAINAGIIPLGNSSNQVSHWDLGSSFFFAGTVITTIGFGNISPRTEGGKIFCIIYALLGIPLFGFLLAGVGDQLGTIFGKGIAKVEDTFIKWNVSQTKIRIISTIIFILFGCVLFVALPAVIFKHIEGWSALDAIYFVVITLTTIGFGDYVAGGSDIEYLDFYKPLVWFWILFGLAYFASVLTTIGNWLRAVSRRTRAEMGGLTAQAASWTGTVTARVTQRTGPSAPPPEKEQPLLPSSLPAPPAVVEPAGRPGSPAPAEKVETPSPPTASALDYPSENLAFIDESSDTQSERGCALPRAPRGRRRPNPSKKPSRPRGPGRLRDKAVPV

TREK-1/AAK M3-C = biological target: T2, TREK-1/AAK M3-C (Mus musculus, UniProt O88454+P97438); assay: TEVC of chimera TREK-1/AAK M3-C
T2 construct: Trp199 (TREK-1/AAK M3-C); expressed in transfected cells; host or cells: Xenopus laevis oocytes, mRNA injected; chimera built by Gibson assembly
T2 sequence (P97438+O88454 with tags, fused parts or gaps P97438:N200H/P97438:S202P/P97438:Q203P/P97438:T204G/P97438:K205L/P97438:I206V/P97438:I208S/P97438:I209L/P97438:T211A/P97438:I212V/P97438:I213L/P97438:I215L/P97438:F217I/P97438:V220L/P97438:A224L/P97438:L225T/P97438:A227T/P97438:V228F/P97438:I229V/P97438:K231S/P97438:H232Y/P97438:I233M/P97438:G235S/P97438:A238K/P97438:D240E/P97438:V246I/P97438:I247V/P97438:I252V/P97438:A259P/P97438:G261D/P97438:S262G/P97438:D263T/P97438:I264G/P97438:E265Q/P97438:Y266N/P97438:L267S/P97438:D268P/P97438:F269A/P97438:K271Q/P97438:V273L/P97438:V280F/P97438:A287S/P97438:S290T/P97438:M291T/P97438:D294N): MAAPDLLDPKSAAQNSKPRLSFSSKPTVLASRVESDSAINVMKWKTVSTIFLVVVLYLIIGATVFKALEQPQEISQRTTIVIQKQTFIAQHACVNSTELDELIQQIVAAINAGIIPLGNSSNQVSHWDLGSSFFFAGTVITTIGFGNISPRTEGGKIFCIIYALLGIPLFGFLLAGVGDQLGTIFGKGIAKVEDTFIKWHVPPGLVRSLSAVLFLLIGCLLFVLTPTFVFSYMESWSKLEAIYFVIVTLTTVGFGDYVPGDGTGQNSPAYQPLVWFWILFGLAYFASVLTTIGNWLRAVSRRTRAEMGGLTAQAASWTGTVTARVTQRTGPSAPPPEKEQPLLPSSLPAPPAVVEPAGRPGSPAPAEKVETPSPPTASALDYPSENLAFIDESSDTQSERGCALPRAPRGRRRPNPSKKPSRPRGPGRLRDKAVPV

TRAAK/EK-1 M2-C = biological target: T3, TRAAK/EK-1 M2-C (Mus musculus, UniProt O88454+P97438, A151S/D143N/F160Y/H141A/P165L/Q138H/R166H/S147A/S164V/V139S/V154I); assay: TEVC of chimera TRAAK/EK-1 M2-C
T3 construct: Thr114 (TRAAK/EK-1 M2-C); expressed in transfected cells; host or cells: Xenopus laevis oocytes, mRNA injected; chimera built by Gibson assembly
T3 sequence (O88454+P97438 fused with the stated changes): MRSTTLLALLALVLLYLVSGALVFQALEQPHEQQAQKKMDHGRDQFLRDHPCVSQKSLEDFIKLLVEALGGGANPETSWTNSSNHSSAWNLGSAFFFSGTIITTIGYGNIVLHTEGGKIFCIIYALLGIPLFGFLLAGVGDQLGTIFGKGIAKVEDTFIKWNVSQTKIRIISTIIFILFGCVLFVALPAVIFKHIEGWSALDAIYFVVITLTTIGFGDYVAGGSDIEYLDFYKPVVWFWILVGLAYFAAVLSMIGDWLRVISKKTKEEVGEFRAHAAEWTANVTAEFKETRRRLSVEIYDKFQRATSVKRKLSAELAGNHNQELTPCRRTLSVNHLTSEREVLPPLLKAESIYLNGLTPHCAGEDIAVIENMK

Row | Structure (SMILES) | EC50 (TREK-1/AAK M4-C) [µM] | EC50 (TREK-1/AAK M3-C) [µM] | EC50 (TRAAK/EK-1 M2-C) [µM]
1 | c1ccc(-c2nnn[nH]2)c(Nc2cccc3c2CCCC3)c1 [BL-1249, (5,6,7,8-tetrahydro-naphthalen-1-yl)-[2-(1H-tetrazol-5-yl)-phenyl]-amine] | 19 ± 3 | 28 ± 2 | 28 ± 5
2 | CS(=O)(=O)Nc1ccc(C(=O)NCc2ccc(Cl)cc2Cl)cc1 [ML335] | 2 ± 0.6 | > 100 | 8 ± 1
